Test [1] addresses T1, cloned human dopamine D3 receptors (Homo sapiens, UniProt P35462).
T1 construct: expressed in transfected cells
As to the kind of experiment: [N-Methyl-3H]Spiroperidol binding to cloned human dopamine D3 receptors. The note with it: Table III; read-out: d3Ki. Put shortly: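 Competition binding on homogenized CHO cells stably expressing human D3, with 0.4 nM [3H]NMSP (final), 37 °C for 30 min, filtration and scintillation counting. Nonspecific binding defined with 3 μM S(-)-eticlopride; typically eight test concentrations, 10^−5–10^−8 M final. Ki by Cheng-Prusoff from one-site competition fits, duplicate means.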

Test [2] concerns the target T2, cloned human alpha-1A adrenergic receptors (α1a) (Homo sapiens, UniProt P35348).
T2 construct: expressed in transfected cells
T2 sequence (P35348 1-466): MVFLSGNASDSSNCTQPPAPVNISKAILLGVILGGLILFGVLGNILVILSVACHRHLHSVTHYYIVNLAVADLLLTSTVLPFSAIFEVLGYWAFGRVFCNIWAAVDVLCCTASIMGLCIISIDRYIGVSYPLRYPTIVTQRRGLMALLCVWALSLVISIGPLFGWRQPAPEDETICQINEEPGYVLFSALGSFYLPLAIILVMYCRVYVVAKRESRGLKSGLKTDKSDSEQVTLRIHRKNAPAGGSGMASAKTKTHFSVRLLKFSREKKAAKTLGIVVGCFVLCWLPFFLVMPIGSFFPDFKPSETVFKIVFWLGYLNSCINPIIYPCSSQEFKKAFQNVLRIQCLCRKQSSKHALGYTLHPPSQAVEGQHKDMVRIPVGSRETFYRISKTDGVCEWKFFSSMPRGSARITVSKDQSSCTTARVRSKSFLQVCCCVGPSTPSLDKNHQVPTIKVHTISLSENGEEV
The experiment in a line: [3H]Prazosin binding to cloned human alpha-1A adrenergic receptors expressed in CHO cells. The note with it: for halpha1 % I: @1 μM; for pKi: Table II, pairs of 6-fluoro and 6-trifluoromethyl benzo[b]thiophenes, read-out: halpha1Ki. The source says: [^3H]PRAZOSIN BINDING TO CLONED HUMAN ALPHA-1A ADRENERGIC RECEPTORS (α1a) EXPRESSED IN CHINESE HAMSTER OVARY CELLS (CHO)
This in vitro assay is designed as a screen to identify compounds displaying a affinity for the human α1a adrenoceptor subtype expressed in the membrane fragments of CHO cells. The assay-measures the ability of the test compounds to displace [^3H]prazosin from α1a sites.
Therefore, the binding of compounds to α1a adrenergic receptors is believed to be a good measure of a compound's potential to cause orthostatic hypotension and sedation as side effects. Prazosin is a potent antagonist of the human α1a-adrenoceptor subtype, which has been cloned and is expressed in the membrane fragments of CHO cells.
The cloning of the human α1a cDNA was accomplished first by screening a human prostate cDNA library (Clontech), from which a portion of the coding region was obtained. This DNA fragment was then used to screen a human leukocyte genomic library (Clontech), and the rest of the coding sequence was obtained. Later these two fragments were spliced together. The entire coding sequence was then fully sequenced including matching PCR sequence with original genomic coding sequence, thus ensuring splice sites were joined correctly (Schwinn et al., 1995). Once sequenced, the gene was subcloned into the expression vector pcDNA3 (Invitrogen). Plasmid DNA was then used for transfection into CHO cells and G418 resistant clones were isolated. A clone expressing high levels of the hα1a receptor (as determined by mRNA and receptor binding data) was chosen and pharmacologically characterized.
[7-methoxy-^3H]-Prazosin: 1.0 nM (NEN, NET-823) 70-87 Ci/mmol
A: 50 mM Tris HCl; 0.1% ascorbate, pH 7.7 (incubation buffer)
Total Binding=50 μl buffer A+50 μl [^3H]prazosin+100 μl membrane
Nonsp. Bd.=50 μl 10 μM phentolamine+50 μl [^3H]prazosin+100 μl membrane
Test Cpd.=50 μl compound+50 μl [^3H]prazosin+100 μl membrane
Compounds to be evaluated are weighed out to yield a 10 mM stock solution in DMSO in a 24 well polystyrene plate. This is diluted to a 0.5 mM stock in dH2O. Serial dilutions in Buffer A are made from which 50 μl additions to the plate are made in duplicate in order to achieve the final concentrations desired. Typically, one 96 well plate is used to evaluate 11 compounds at 4 concentrations (10^−6-10^−9 M) in duplicate. Total binding and nonspecific binding are determined in quadruplicate. Usually one standard is run with each assay.
[^3H]Prazosin is made up in Buffer A such that when 50 μl are added per well the final concentration is 1.0 nM in a final assay volume of 200 μl. The final concentration should be verified by running a sample in a scintillation counter prior to adding the [^3H]prazosin to the 96 well plate. Note: The radioactivity should be prepared just before the additions are made so that it is not allowed to sit on the bench for very long.
Incubation & Filtration: Once buffer, compounds, [^3H]prazosin and membrane have been added (and mixed), the 96 well plates are incubated for 40 min at 37° C. and spaced 3-5 min apart. At 40 min, the plates are filtered using a Tomtec Automated Cell Harvester. Filtration is immediately followed by washes of ice cold Buffer B (total vol. ˜7 ml).
Analysis of Results: Raw DPM and CPM data are captured on disk and are imported into one of several software packages (Graphpad Prism Ver 2.0, Excel) residing on the LAN. Specific binding is defined as the difference between total binding and the binding in the presence of 10 μM phentolamine. Total binding is less than 10% of the total added ligand. Software using one-site competition curve analysis is employed in the calculation of IC50 and Kj (Cheng-Prusoff equation, 1973). The top and bottom of the non-linear regression are held constant at 0% and 100% inhibition. The percent inhibition at each drug concentration is the mean of duplicate determinations.

Molecules are shown by their SMILES. pKi: −log10 of the molar value.

T1 sequence (P35462 whole entry): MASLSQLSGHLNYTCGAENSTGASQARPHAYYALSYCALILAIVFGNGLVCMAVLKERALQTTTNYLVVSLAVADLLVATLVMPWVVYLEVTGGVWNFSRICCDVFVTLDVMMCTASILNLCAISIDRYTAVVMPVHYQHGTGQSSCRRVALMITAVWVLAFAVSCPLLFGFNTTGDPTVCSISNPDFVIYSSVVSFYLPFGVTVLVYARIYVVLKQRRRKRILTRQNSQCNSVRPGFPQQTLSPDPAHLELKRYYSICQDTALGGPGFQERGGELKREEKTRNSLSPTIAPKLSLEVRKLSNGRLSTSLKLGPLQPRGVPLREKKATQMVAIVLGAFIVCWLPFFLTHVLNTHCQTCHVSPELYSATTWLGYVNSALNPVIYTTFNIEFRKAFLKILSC

Regarding `Cc1ccc(NC(=O)NCCCCN2CCN(c3csc4cc(C(F)(F)F)ccc34)CC2)cc1` [compound 815997], the pKi in test [1] is 8.35; in test [2], 6.03. For the same molecule, the “halpha1 % I” value in test [2] was 23.5% Inh @1 μM.
Consider `O=C(NCCCCN1CCN(c2csc3cc(C(F)(F)F)ccc23)CC1)Nc1ccc(Br)cc1` [compound 816000], for which the pKi is 8.20 in test [1] and 6.63 in test [2].
For `O=C(NCCCCN1CCN(c2csc3cc(C(F)(F)F)ccc23)CC1)NC1CCCCC1` [compound 816001] the same measures were 8.33 and 7.08.
With `O=C(NCCCCN1CCN(c2csc3cc(C(F)(F)F)ccc23)CC1)Nc1ccc(C(F)(F)F)cc1` [compound 816002], the pKi is 7.90 in test [1] and 6.36 in test [2]. Besides, in test [2], the “halpha1 % I” value came out at 30.2% Inh @1 μM.
For `O=C(NCCCCN1CCN(c2csc3cc(C(F)(F)F)ccc23)CC1)Nc1cccc(F)c1` [compound 816003], the pKi was 8.80 in test [1] and 7.25 in test [2].
The corresponding values for `O=C(NCCCCN1CCN(c2csc3cc(C(F)(F)F)ccc23)CC1)Nc1ccccc1` [compound 816005] are 8.60 and 7.25.

The values above are taken from patent US20030229066A1, “Novel heterocyclic urea derivatives and their use as dopamine D3 receptor ligands” (priority 2001, published 2003).
